Where a name gives a salt, the structure may show the parent alone.
What was measured:
[1] = pH of about 9; cited from earlier work
Escherichia coli = test: activity (CD 50) against Escherichia coli upon subcutaneous administration to mice; type: in vivo
[2] = acute toxicity in mice (LD 50); type: in vivo; settings: mouse, in vivo, iv, intravenous administration, read-out: LD 50 (Lethal Dose) i.v.
mice = test: acute toxicity in mice (LD 50); type: in vivo; settings: for LD 50 (Lethal Dose) s.c.: subcutaneous administration

Row | Structure (SMILES) | stability at high pH [1] | ED50 (Escherichia coli; sc, read-out: CD 50 (Curative Dose)) [mg/kg] | LD50 [2] [mg/kg] | LD 50 (Lethal Dose) s.c. (mice) [mg/kg] | CD 50 (Curative Dose) (Escherichia coli) [mg/kg] | LD 50 (Lethal Dose) i.v. (mice; intravenous administration) [mg/kg]
1 | CC1(C)S[C@@H]2[C@H](NC(=O)[C@H](N)c3ccc(O)cc3)C(=O)N2[C@H]1C(=O)O [Amoxicillin, D-(-)-alpha-amino-parahydroxybenzyl penicillin] | very unstable |  |  |  |  | 
2 | CC1(C)S[C@@H]2[C@H](NC(=O)[C@H](N)c3ccc(O)cc3)C(=O)N2[C@H]1C(=O)O [X, choline salt of amoxicillin] |  | 5.9 | 250 to 500 | 2000 to 4000 |  | 
3 | CC1(C)S[C@@H]2[C@H](NC(=O)[C@H](N)c3ccc(O)cc3)C(=O)N2[C@H]1C(=O)O [Y, N-methyl-D-glucamine salt of amoxicillin] |  |  |  | > 5000 | 5.0 | 500 to 1000
